Molecules are shown by their SMILES.

In one assay the target is T1, HCV NS3-4A serine protease (full-length NS3-4A protein, genotype 1a, strain HCV-1) (Hepatitis C virus genotype 1a, UniProt P26664).
T1 construct: using the full-length NS3-4A protein (genotype 1a, strain HCV-1)
T1 sequence (P26664 1658-1711): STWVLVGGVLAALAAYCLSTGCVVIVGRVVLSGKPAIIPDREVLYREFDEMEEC
T1 sequence (P26664 1027-1657): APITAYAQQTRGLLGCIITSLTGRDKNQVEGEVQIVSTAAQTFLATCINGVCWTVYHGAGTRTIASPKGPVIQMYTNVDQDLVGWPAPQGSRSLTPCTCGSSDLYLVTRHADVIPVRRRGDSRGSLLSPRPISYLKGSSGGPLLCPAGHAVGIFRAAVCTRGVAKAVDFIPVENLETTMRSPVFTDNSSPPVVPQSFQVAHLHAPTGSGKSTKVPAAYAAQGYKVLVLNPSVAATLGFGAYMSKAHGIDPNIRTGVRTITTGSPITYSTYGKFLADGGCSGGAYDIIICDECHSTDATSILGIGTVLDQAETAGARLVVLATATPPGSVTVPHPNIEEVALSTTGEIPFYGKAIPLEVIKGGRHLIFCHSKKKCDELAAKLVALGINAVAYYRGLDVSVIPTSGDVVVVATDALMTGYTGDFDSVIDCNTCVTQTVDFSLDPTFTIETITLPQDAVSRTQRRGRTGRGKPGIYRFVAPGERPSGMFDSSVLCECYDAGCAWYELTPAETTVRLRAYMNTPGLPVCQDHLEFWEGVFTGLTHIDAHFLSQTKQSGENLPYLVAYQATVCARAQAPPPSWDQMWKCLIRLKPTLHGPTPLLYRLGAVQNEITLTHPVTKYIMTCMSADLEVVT
In words: HCV NS3-4A protease assay. In kind it is biochemical. To be noted: Protease IC50. As to the method:
The inhibitory activity of certain compounds of Table A against HCV NS3-4A serine protease is determined in a homogenous assay using the full-length NS3-4A protein (genotype 1a, strain HCV-1) and a commercially available internally-quenched fluorogenic peptide substrate as described by Taliani, M., et al. 1996 Anal. Biochem. 240:60-67, which is incorporated by reference in its entirety.
The IC50 is the midpoint of a concentration-inhibition curve. Regarding `C=C[C@@H]1C[C@]1(NC(=O)[C@@H]1C[C@@]2(CN1C(=O)[C@@H](NC(=O)[C@@H](NC(=O)[C@@H]1CCCCN1C(C)C)C(C)(C)C)C(C)(C)C)C(C)(C)C21CCC1)C(=O)NS(=O)(=O)c1ccccc1` [Compound 17, (5R,8S)-7-[(2S)-2-{[(2S)-2-({[(2S)-1-isopropylpiperidin-2-yl]carbonyl}amino)-3,3-dimethylbutanoyl]amino}-3,3-dimethylbutanoyl]-10,10-dimethyl-N-{(1R,2S)-1-[(phenylsulfonyl)carbamoyl]-2-vinylcyclopropyl}-7-azadispiro[3.0.4.1]decane-8-carboxamide], half-maximal inhibition (IC50) required 4.5 nM.

Turning to `C=C[C@@H]1C[C@]1(NC(=O)[C@@H]1C[C@@]2(CN1C(=O)[C@@H](NC(=O)[C@@H](NC(=O)[C@@H]1CCCCN1C(C)C)C(C)(C)C)C(C)(C)C)C(C)(C)C21CCC1)C(=O)NS(=O)(=O)Cc1ccccc1` [Compound 22, (5R,8S)-N-{(1R,2S)-1-[(benzylsulfonyl)carbamoyl]-2-vinylcyclopropyl}-7-[(2S)-2-{[(2S)-2-({[(2S)-1-isopropylpiperidin-2-yl]carbonyl}amino)-3,3-dimethylbutanoyl]amino}-3,3-dimethylbutanoyl]-10,10-dimethyl-7-azadispiro[3.0.4.1]decane-8-carboxamide], it took 14 nM to reach half-maximal inhibition (IC50).

On to `CC(C)N1CCCC[C@H]1C(=O)N[C@H](C(=O)N[C@H](C(=O)N1C[C@]2(C[C@H]1C(=O)NC1(C(=O)NS(=O)(=O)C3CC3)CC=CC1)C(C)(C)C21CCC1)C(C)(C)C)C(C)(C)C` [Compound 23, (5R,8S)-N-{1-[(cyclopropylsulfonyl)carba-moyl]cyclopent-3-en-1-yl}-7-[(2S)-2-{[(2S)-2-({[(2S)-1-isopropylpiperidin-2-yl]carbonyl}amino)-3,3-dimethylbutanoyl]amino}-3,3-dimethylbutanoyl]-10,10-dimethyl-7-azadispiro[3.0.4.1]decane-8-carboxamide], for which the midpoint of inhibition, the IC50, lay at 1250 nM.

The same assay, now with this note: read-out: Protease IC50.
Regarding `C=C[C@@H]1C[C@]1(NC(=O)[C@@H]1C[C@@]2(CN1C(=O)[C@@H](NC(=O)N[C@H](CN(C)S(=O)(=O)c1ccccn1)C(C)(C)C)C(C)(C)C)C(C)(C)C21CCC1)C(=O)NS(=O)(=O)C1CC1` [Compound 18, (5R,8S)-N-{(1R,2S)-1-[(cyclopropylsulfonyl)carba-moyl]-2-vinylcyclopropyl}-7-[(2S)-2-({[(1S)-2,2-dimethyl-1-{[methyl(pyridin-2-ylsulfonyl)amino]methyl}prop-yl]carbamoyl}amino)-3,3-dimethylbutanoyl]-10,10-dimethyl-7-azadispiro[3.0.4.1]decane-8-carboxamide], the IC50 worked out at 3 nM.

Turning to `C=C[C@@H]1C[C@]1(NC(=O)[C@@H]1C[C@@]2(CN1C(=O)[C@@H](NC(=O)C1CCCN(C(C)=O)C1)C(C)(C)C)C(C)(C)C21CCC1)C(=O)NS(=O)(=O)C1CC1` (stereo partly drawn) [Compound 19, (5R,8S)-7-[(2S)-2-{[(1-acetylpiperidin-3-yl)carbonyl]amino}-3,3-dimethylbutanoyl]-N-{(1R,2S)-1-[(cyclopropylsulfonyl)carba-moyl]-2-vinylcyclopropyl}-10,10-dimethyl-7-azadispiro[3.0.4.1]decane-8-carboxamide], the IC50 was determined as 350 nM.

On to `C=C[C@@H]1C[C@]1(NC(=O)[C@@H]1C[C@@]2(CN1C(=O)[C@@H](NC(=O)N[C@H](CN(C)S(=O)(=O)N(C)C)C(C)(C)C)C(C)(C)C)C(C)(C)C21CCC1)C(=O)NS(=O)(=O)C1CC1` [Compound 20, (5R,8S)-N-{(1R,2S)-1-[(cyclopropylsulfonyl)carba-moyl]-2-vinylcyclopropyl}-7-[(2S)-2-({[(1S)-1-({[(dimethylamino)sulfonyl] (methyl)amino}methyl)-2,2-dimethylpropyl]carbamoyl}amino)-3,3-dimethylbutanoyl]-10,10-dimethyl-7-azadispiro[3.0.4.1]decane-8-carboxamide], for which the IC50 worked out at 2 nM.

The record behind these values is patent US20110182850A1, “ORGANIC COMPOUNDS AND THEIR USES” (priority 2009, published 2011).
